In ChEMBL document CHEMBL1201862, “PubChem BioAssay data set” (2004):
The source made the active and inactive calls.

Columns and labels:
Cytochrome P450 2C19 = Cytochrome P450 2C19 (Homo sapiens, UniProt P33261); experiment: qHTS Assay for Inhibitors and Substrates of Cytochrome P450 2C19. [Related pubchem assays: 410 ]; assay type: ADME; settings: read-out: Potency
Estrogen receptor beta = Estrogen receptor beta (Homo sapiens, UniProt Q92731); experiment: blockers of SRC-3 recruitment to ERβ – biochemical, ELISA, streptavidin-HRP readout, orthogonal assay, confirmation (AID 1060)
Estrogen receptor beta, sequence (Q92731 whole entry): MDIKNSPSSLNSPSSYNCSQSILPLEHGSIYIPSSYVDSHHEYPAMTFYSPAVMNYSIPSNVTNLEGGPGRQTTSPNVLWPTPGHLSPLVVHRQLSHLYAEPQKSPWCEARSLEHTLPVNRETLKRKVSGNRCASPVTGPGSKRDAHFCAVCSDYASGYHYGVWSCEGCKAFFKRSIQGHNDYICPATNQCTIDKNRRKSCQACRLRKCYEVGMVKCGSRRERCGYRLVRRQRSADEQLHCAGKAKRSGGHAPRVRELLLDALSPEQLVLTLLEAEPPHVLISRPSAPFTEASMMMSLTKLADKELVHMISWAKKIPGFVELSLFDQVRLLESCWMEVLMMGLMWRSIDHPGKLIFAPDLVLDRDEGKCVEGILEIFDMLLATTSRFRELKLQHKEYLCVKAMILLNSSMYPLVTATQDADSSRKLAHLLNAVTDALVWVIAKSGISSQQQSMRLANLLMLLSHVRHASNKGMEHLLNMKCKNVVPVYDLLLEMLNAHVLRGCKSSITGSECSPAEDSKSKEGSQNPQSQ

Cytochrome P450 2C9 = Cytochrome P450 2C9 (Homo sapiens, UniProt P11712); settings: Potency
Cytochrome P450 2C9, sequence (P11712 whole entry): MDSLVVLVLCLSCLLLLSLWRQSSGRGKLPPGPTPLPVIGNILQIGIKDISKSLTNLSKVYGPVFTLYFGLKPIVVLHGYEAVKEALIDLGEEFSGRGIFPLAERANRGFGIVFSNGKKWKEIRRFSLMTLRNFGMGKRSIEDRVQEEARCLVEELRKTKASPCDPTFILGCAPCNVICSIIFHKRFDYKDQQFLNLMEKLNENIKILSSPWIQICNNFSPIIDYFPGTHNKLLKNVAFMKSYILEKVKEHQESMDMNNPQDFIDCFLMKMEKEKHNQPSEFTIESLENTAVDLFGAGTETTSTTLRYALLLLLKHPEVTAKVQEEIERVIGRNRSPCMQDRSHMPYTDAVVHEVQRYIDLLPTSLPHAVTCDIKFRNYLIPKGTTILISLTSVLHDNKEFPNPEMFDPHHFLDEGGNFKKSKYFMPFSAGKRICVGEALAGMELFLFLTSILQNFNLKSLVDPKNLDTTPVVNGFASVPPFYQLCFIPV

Protein RecA = biological target: T1, Protein RecA (Mycobacterium tuberculosis, UniProt P9WHJ3); experiment: Fluorescence Cell-Free Homogeneous Dose Retest to Identify Inhibitors of RecA-Intein Splicing Activity. [Related pubchem assays (depositor defined):AID2097, AID2223, AID489010, AID492950]; assay type: functional
T1 sequence (P9WHJ3 whole entry): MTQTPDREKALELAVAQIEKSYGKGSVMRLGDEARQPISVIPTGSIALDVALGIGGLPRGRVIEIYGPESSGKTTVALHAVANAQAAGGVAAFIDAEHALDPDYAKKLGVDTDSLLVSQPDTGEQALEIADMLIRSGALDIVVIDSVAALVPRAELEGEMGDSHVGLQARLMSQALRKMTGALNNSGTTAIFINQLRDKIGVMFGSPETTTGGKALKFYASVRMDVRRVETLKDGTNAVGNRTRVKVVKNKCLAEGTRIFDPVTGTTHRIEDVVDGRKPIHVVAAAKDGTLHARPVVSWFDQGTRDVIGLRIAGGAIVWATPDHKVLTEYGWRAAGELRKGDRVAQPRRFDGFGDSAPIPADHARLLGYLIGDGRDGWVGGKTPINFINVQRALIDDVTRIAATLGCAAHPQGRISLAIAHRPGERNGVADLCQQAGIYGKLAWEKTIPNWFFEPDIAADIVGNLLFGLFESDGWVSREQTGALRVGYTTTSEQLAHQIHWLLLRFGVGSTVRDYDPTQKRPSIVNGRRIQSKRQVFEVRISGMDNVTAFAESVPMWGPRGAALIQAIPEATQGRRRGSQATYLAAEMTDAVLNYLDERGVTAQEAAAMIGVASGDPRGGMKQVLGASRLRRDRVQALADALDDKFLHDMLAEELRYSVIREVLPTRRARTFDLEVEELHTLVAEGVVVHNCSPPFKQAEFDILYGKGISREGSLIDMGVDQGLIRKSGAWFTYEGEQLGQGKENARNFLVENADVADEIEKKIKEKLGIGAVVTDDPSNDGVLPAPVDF

[1] = Luminescence Cell-Based Dose Retest to Confirm Inhibitors of Cancer Stem Cells. [Related pubchem assays (depositor defined):AID2717, AID2721]; assay type: functional; settings: Homo sapiens
[2] = loss of viability in HepG2 cells – cell-based, CellTiter-Glo, cherry-picked, cytotoxicity control for Shn3 inhibitor project, dose response (AID 624134); assay type: functional
[3] = viability loss of HPDE-C7K cells – cell-based, fluorescence, HTS, primary screen (AID 431); assay type: functional; settings: Homo sapiens
[4] = HPDE-C7 pancreatic duct cell viability loss – fluorescence, HTS (AID 430); assay type: functional, cell-based; settings: Homo sapiens
[5] = biological target: T2, Replicative DNA helicase DnaB (Mycobacterium tuberculosis, UniProt P9WMR3); experiment: DnaB intein splicing inhibitors, dose response, biochemical, cell-free fluorescence (AID 449749); assay type: functional
T2 sequence (P9WMR3 whole entry): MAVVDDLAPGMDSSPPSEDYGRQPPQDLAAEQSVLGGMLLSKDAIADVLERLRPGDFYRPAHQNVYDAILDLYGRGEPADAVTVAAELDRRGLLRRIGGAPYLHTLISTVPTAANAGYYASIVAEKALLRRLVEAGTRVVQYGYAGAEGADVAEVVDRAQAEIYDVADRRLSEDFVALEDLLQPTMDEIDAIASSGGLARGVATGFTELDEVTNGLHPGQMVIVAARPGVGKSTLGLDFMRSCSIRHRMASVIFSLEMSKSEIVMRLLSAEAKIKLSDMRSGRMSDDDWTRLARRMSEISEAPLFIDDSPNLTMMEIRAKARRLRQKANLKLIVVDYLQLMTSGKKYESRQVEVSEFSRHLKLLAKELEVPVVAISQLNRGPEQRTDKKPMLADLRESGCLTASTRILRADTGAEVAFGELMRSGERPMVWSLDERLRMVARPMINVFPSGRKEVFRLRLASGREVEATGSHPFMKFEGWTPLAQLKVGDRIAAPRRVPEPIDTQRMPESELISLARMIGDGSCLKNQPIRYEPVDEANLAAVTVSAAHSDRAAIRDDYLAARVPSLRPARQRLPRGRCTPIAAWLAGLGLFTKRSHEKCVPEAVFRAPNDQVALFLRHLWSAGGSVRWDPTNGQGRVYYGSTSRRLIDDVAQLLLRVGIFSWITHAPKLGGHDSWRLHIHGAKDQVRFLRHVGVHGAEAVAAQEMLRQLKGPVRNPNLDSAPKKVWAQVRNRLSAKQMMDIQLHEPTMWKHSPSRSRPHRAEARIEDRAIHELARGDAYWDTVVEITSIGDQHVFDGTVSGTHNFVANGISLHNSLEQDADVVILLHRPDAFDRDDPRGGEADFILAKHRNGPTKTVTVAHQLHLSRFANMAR

[6] = reduction of Shn3 3'UTR-driven luciferase in osteoblasts – cell-based, Clone20 osteoblasts, firefly luciferase, cherry-picked, dose response (AID 624132); assay type: functional;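 further: firefly luciferase luminescence from reporter carrying the Shn3 3'UTR in osteoblasts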
[7] = non-specific 3'UTR reporter inhibition in Clone20-Shn3RL – cell-based, Renilla luciferase, cherry-picked, counter-screen for Shn3 inhibitor project, dose response (AID 624133); assay type: functional
[8] = viability of HCT116 lacking mutant beta-catenin – cell-based, human colon tumor, dose response (AID 1045); assay type: functional;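 further: HCT116 colon tumor cells with beta catenin knocked out; cells exposed to compound for 60 hours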
[9] = biological target: T3, Mannose-6-phosphate isomerase (Homo sapiens, UniProt P34949); experiment: MPI inhibition at elevated mannose 6-phosphate – biochemical, fluorescence intensity, high mannose 6-phosphate, primary screen (AID 1220)
T3 sequence (P34949 whole entry): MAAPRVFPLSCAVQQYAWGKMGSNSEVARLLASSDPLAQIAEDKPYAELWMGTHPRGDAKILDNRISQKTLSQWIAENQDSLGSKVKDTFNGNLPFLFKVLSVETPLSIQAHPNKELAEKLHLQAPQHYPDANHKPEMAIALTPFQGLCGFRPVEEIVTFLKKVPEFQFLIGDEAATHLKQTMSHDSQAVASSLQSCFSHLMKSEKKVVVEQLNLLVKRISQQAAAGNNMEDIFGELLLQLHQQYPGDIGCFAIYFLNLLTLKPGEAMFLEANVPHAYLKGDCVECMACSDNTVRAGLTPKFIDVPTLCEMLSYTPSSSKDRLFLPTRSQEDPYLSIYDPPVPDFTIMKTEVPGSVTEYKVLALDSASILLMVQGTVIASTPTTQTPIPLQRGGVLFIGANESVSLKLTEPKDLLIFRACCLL

[10] = viability of PTEN-deleted HCT116 cells – cell-based, HCT116 PTEN knockout, dose response (AID 1047); assay type: functional;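 further: HCT116 colon tumor cells with PTEN knocked out; cells exposed to compound for 60 hours before readout; potency for loss of cell viability measured by luminescence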

Cytochrome P450 2C19, sequence (P33261 whole entry): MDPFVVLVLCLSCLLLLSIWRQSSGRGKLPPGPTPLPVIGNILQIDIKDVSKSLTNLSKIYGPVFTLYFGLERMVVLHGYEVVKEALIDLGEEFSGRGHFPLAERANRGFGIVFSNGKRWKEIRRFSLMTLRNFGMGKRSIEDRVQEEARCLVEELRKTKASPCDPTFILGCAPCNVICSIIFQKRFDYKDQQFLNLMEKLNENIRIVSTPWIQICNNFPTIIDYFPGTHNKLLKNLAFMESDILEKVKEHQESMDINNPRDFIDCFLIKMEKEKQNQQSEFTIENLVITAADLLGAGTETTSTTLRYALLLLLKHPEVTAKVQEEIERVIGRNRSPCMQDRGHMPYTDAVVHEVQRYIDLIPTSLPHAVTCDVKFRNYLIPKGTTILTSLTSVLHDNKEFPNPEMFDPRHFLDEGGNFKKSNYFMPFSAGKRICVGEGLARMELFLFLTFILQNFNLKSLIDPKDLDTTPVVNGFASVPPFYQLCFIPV

With `CC(=O)OCC1OC(c2cc(C)cc(C)c2)C=CC1OC(C)=O` (stereo not drawn) the AC50 (Cytochrome P450 2C19) was 2.51 µM (inconclusive).

For `COC(=O)C1C(c2ccccc2)C2C(=O)c3c(OC)cc(OC)cc3O[C@@]12c1ccc(OC)cc1` (stereo partly drawn), the AC50 (Cytochrome P450 2C19) was 0.001 µM (inconclusive).

In the case of `O=C(NCC1CCCO1)c1cc(-c2ccco2)nc2ccccc12` (stereo not drawn), the IC50 (Estrogen receptor beta) was 26.4 µM (not active).

In the case of `NCCC[C@@H](CC(=O)N[C@@H]1CCNC[C@H]1C(=O)N[C@H](CC(=O)N[C@@H](CCC(=O)O)CC(=O)O)Cc1ccccc1)NC(=O)C[C@H](CO)NC(=O)[C@@H]1CNCC[C@H]1N`, the AC50 (Cytochrome P450 2C19) was 15.8 µM (inconclusive) and the AC50 (Cytochrome P450 2C9) was 15.8 µM (inconclusive).

For `NCCC[C@@H](CC(=O)N[C@@H]1CCCC[C@H]1C(=O)N[C@H](CC(=O)N[C@@H](CCC(=O)O)CC(=O)O)Cc1ccccc1)NC(=O)C[C@H](CO)NC(=O)[C@@H]1CNCC[C@H]1N`, the AC50 (Cytochrome P450 2C9) was 39.8 µM (inconclusive).

For `CC(C)C[C@H](N)c1nnc(S(=O)(=O)Cc2ccc(F)cc2)o1`, the EC50 (Protein RecA) was 25.7 µM (active), the AC50 [1] was 4.78 µM (active) and the AC50 [2] was 27.4 µM (active). The EC50 [3] was 7.91 µM (active), the EC50 [4] was 8.98 µM (active) and the AC50 [5] was 1.4 µM (active). For the same compound, the AC50 [6] was 9.02 µM (active) and the AC50 [7] was 22.1 µM (active).

In the case of `CC1(C)Cc2c(C#N)c(NCc3ccco3)nc(-c3ccco3)c2CO1`, the EC50 [3] was > 20 µM (not active) and the EC50 [4] was 10.1 µM (active).

For `CCCOC(=O)c1ccc(Oc2c(C)n[nH]c2-c2ccc(O)cc2O)cc1`, the EC50 [3] was 13.7 µM (active) and the EC50 [4] was 10.3 µM (active).

With `COc1ccc(C2NC(=O)NC3=C2CCc2ccccc23)cc1` (stereo not drawn) the EC50 (Protein RecA) was 4.7 µM (active), the EC50 [8] was 9.83 µM (active) and the IC50 [9] was 46.8 µM (active). For the same compound, the EC50 [10] was 8.31 µM (active) and the AC50 [5] was > 120 µM (inactive).
